Consider three molecules from paper PMC12889028, “Discovery and biological evaluation of novel N-aryl-N′-methylbenzodrazides against Schistosoma japonicum in vitro and in vivo” (Microbiology Spectrum, 2025).

A short description of data set [1]: Serum hepatic/renal function profiling of infected, treated mice. The data set is classed as in vivo, ICR mice. To be noted: for Serum GGT: normal range 1–15 U/L; for Serum TBIL: normal range 1.7–15.4 µM; for Serum BUN: normal range 4.9–10.4 mM; for Serum ALT: normal range 28–132 U/L; for Serum AST: normal range 59–247 U/L; for Nephrotoxicity: infected treated mice, judged from BUN. The procedure: Following maturation, Schistosoma parasites initiate oviposition, with a proportion of eggs migrating via the circulatory system to hepatic tissues. This ectopic deposition induces granuloma formation that subsequently elicits a cascade of immune-mediated pathologies, ultimately compromising hepatic and renal functions in murine models. To evaluate therapeutic efficacy, retro-orbital blood sampling was performed for comprehensive hepatic function profiling, enabling systematic assessment of pharmacological impacts on schistosomiasis-associated organ damage.
Lead compounds 5, 18, and 41 (100 mg/kg) were orally administered once daily for 5 consecutive days to infected mice (n = 6/group) during two therapeutic windows: (i) Juvenile stage: treatment initiated at 9 dpi, terminal sacrifice at 45 dpi; (ii) adult stage: treatment initiated at 35 dpi, terminal sacrifice at 45 dpi. Positive controls received praziquantel (PZQ, 100 mg/kg/day ×5 days); negative controls received PBS (0.3 mL). Mice treated at 9 dpi were euthanized 36 days post-treatment; those treated at 35 dpi were euthanized 10 days post-treatment. Adult worms were perfused from the hepatic portal system and mesenteric veins. Parasite burden was quantified by worm enumeration, and worm burden reduction (WBR) was calculated: […]

The next data set relates to adult S. japonicum worms. Description: SEM examination in vitro of tegumental damage. The note with it: 100 μM. The format is cell-based, Schistosoma japonicum. The protocol:
Adult S. japonicum worms (male/female) underwent standardized fixation after in vitro exposure to compounds 5, 18, and 41 over a period of 12 h. First, the samples were immersed in 2.5% glutaraldehyde (prepared with 40 mL 0.2 M phosphate-buffered saline [PBS, pH 7.4], 5 mL 50% glutaraldehyde stock, and 55 mL ultrapure water) at 4°C for 24 h. After triple washes in PBS for 5 min each, worms were rinsed with deionized water for 10 min. The next dehydration sequence included ethanol gradient (50%, 70%, 80%, 90%, 100%; 5 min/step) and tert-butanol gradient (50%, 70%, 90%, 100%; 10 min/step). The worms were freeze-dried, directly sputter-covered with a thin gold layer using a Sputter Coater, and imaged using a scanning electron microscope (Quanta 450).

The test system of data set [2] is adult worms of S. japonicum (Chinese strain). Description: microbe, parasite or virus in culture. To be noted: for mortality at 100 µM / LC50: Schistosoma japonicum; for LC50: read-out: LC50 (72 h). The protocol:
S. japonicum cercariae (Chinese strain) were acquired from infected Oncomelania hupensis snails (Wuxi Insect Vector Biology Co., Ltd., China) ([28]). ICR mice (6–8 weeks, 22–25 g; Hunan SJA Laboratory Animal Co., Ltd., China) were percutaneously infected via abdominal exposure to 60 ± 5 cercariae. Adult schistosomes were perfused from the hepatic portal system at 35 dpi using a modified Duvall and DeWitt method ([29]). Animals were housed under controlled conditions (22°C ± 1°C, 12 h light/dark cycle) with ad libitum access to feed and water.
Adult S. japonicum worms isolated from ICR mice were maintained in sterile culture medium (2.0 mL) comprising 77% RPMI 1640 (Lanzhou Bailing Biotech Co., Ltd.; pH 7.5, HEPES-buffered), 20% heat-inactivated fetal bovine serum (Lanzhou Minhai Bio-Engineering Co., Ltd.), and 3% penicillin-streptomycin (100×; 10,000 U/mL penicillin, 10,000 μg/mL streptomycin; New Cell & Molecular Biotech Co., Ltd., China). Incubation was performed at 37°C under 5% CO2. Test compounds were dissolved in DMSO as 0.1 M stock solutions; 2.0 μL aliquots were added to worm-containing media (final concentration: 100 μM in 0.1% DMSO). Negative controls received equivalent volumes of vehicle (0.1% DMSO in RPMI 1640). Parasite viability (motor activity, tegumental integrity, survival) was assessed every 12 h for 72 h using an Olympus CKX53 inverted microscope (n ≥ 3 independent replicates).

A short description of another data set: Acute oral toxicity. The format is in vivo. To be noted: ICR, mouse, in vivo, po, single oral dose, healthy ICR mice. The procedure: (§1) ICR mice (n = 10/group), aged 6 to 8 weeks, received a single oral dose of compounds 5, 18, and 41 (732–2,234 mg/kg). LD50 values were determined by Probit analysis (SPSS 26.0).
A further data set relates to healthy mice. Briefly: Acute oral toxicity. The format is in vivo. To be noted: single oral dose, healthy ICR mice. The procedure:
as §1

Data set [3] has as its system S. japonicum (Chinese strain). Briefly: In vivo antischistosomal assay in infected mice (worm burden, worm morphology, liver eggs). To be noted: for Morphology of worms after treatment in vivo, adult stage / Worm burden reduction (WBR), Adult / Number of worms, Adult / Morphology of worms after treatment in vivo, juvenile stage / Worm burden reduction (WBR), Juvenile / Number of worms, Juvenile: mice, oral 100 mg/kg/day for 5 days; for Worm burden reduction (WBR), Adult: adult stage (from 35 dpi); for Number of worms, Adult: adult stage (treatment from 35 dpi, sacrifice 45 dpi); for Worm burden reduction (WBR), Juvenile: juvenile stage (from 9 dpi); for Number of worms, Juvenile: juvenile stage (treatment from 9 dpi, sacrifice 45 dpi). Set-up: species or system Schistosoma japonicum in ICR mice. The procedure: Lead compounds 5, 18, and 41 (100 mg/kg) were orally administered once daily for 5 consecutive days to infected mice (n = 6/group) during two therapeutic windows: (i) Juvenile stage: treatment initiated at 9 dpi, terminal sacrifice at 45 dpi; (ii) adult stage: treatment initiated at 35 dpi, terminal sacrifice at 45 dpi. Positive controls received praziquantel (PZQ, 100 mg/kg/day ×5 days); negative controls received PBS (0.3 mL). Mice treated at 9 dpi were euthanized 36 days post-treatment; those treated at 35 dpi were euthanized 10 days post-treatment. Adult worms were perfused from the hepatic portal system and mesenteric veins. Parasite burden was quantified by worm enumeration, and worm burden reduction (WBR) was calculated:
WBR (%)=[1−Mean worm count (treated) / Mean worm count (control)]×100% .

The subject of data set [4] is HepG2 (human liver cancer) cells. Description: Cytotoxicity MTT assay, HepG2. The format is cell-based. To be noted: Homo sapiens, HepG2, 48 h incubation. The protocol: (§2) The cytotoxicity of compounds 5, 18, and 41 against human liver cancer (HepG2) and human breast cancer (MCF-7) cell lines in vitro was evaluated using the MTT assay, with cisplatin as a positive control. Cells were plated into 96-well plates and incubated in 100 μL of Dulbecco’s modified Eagle’s medium for 24 h. Test compounds at specified final concentrations were then added to the culture medium. After 48 h incubation, MTT dye (10 μL, 0.5 mg/mL) was added, and cells were incubated for an additional 4 h at 37°C in 5% CO2. Formazan crystals were dissolved in 100 μL DMSO per well, and absorbance at 570 nm (OD570) was measured using an ELx800 microplate reader (Bio-Tek, Winooski, VT, USA) with background subtraction. Cytotoxicity was expressed as IC50 (the concentration causing 50% reduction in cell growth compared to untreated controls). Experiments were performed in triplicate, with results presented as mean ± standard deviation.
(In general: Tetrazolium dyes change colour on reduction, which living cells bring about.)

Data set [5] relates to MCF-7 (human breast cancer) cells. Description: Cytotoxicity MTT assay, MCF-7. The format is cell-based. To be noted: Homo sapiens, MCF7, 48 h incubation. The procedure:
as §2

The next data set deals with Schistosoma mansoni. More on the design: method as in PMID 25583726. The note with it: S. mansoni mouse model; cited from earlier work.
[6] abbreviates: infected mice treated in adult stage.
The mark [7] stands for this setting: infected mice treated in juvenile stage.
The mark [8] stands for this setting: 24 h, read-out: Mortality (%) 24 h, 100 μM, 24 h, adult worms in vitro.
Setting [9] is: 36 h, read-out: Mortality (%) 36 h, 100 μM, 36 h, adult worms in vitro.
The mark [10] stands for this setting: 48 h, read-out: Mortality (%) 48 h, 100 μM, 48 h, adult worms in vitro.
Where [11] appears, read: 72 h, read-out: Mortality (%) 72 h, 100 μM, 72 h, adult worms in vitro.

Where two headings read alike, the source gives them in different places.

Broadly, the mortality is the share of the test organisms that died. As usually defined, the LC50 is the concentration lethal to half of the exposed cells or organisms. For orientation: LD50 means the dose at which mortality reaches 50%. Higher therefore signals a less toxic substance. What is called IC50 is the concentration that gives 50% inhibition.

Regarding `CN(NC(=O)c1ccc(Cl)c(Cl)c1)c1ccc(Br)cc1` [Compound 5], in data set [1] (setting [6]), the “Serum GGT” value is given as 0.73 ± 0.40 U/L, the “Serum TBIL” value is listed as 6.70 ± 3.39 µM, the “Serum BUN” value was 8.80 ± 0.96 mM and the “Serum ALT” value was found to be 313.33 ± 166.21 U/L. The “Serum AST” value in data set [1] (setting [6]) is given as 527.33 ± 303.66 U/L. For the same molecule, in [1] (setting [7]), the “Serum GGT” value is reported as 0.73 ± 0.06 U/L, the “Serum TBIL” value is reported as 7.48 ± 1.64 µM, the “Serum BUN” value amounted to 9.83 ± 1.43 mM and the “Serum ALT” value is listed as 357.67 ± 176.92 U/L. Moreover, the “Serum AST” value in [1] (setting [7]) is reported as 602.33 ± 309.33 U/L. Moreover, in data set [1], the Nephrotoxicity result was “without observable nephrotoxicity”. Moreover, the “Tegumental damage (SEM), female adult worms” value in the data set with adult S. japonicum worms (female worms) is “full-thickness sucker ulceration with stromal collapse, atrophic transformation with coalescing vesicles, and advanced tissue disintegration with tegumental wrinkling”. For the same molecule, in the data set with adult S. japonicum worms (male worms), the “Tegumental damage (SEM), male adult worms” value is “complete spine ablation in gynecophoric canals, suctorial constriction, and muscular layer protrusion through disrupted tegument”. Besides, the “Mortality (%) 72 h” value in data set [2] (100 μM, 72 h, adult worms in vitro) amounted to 100%. Moreover, in data set [2] (setting [8]), the mortality at 100 µM is 35%. In addition, in data set [2] (setting [9]), the mortality at 100 µM came to 65%. Moreover, the mortality at 100 µM in data set [2] (setting [10]) is 95%. The LC50 in [2] (72 h) was 80.2 ± 1.8 µM. In addition, in [2] (setting [11]), the mortality at 100 µM was over 80%. The 50% lethal dose (LD50) in the data set “Acute oral toxicity” came out at 1400 mg/kg. In the data set on healthy mice, the LD50 is given as >2,000 mg/kg and the LogLD50 is over 3.30. In data set [3], the “Morphology of worms after treatment in vivo, adult stage” value was “making the males thicker and shorter”; the “Number of worms, Adult” value was determined as 29; the “Morphology of worms after treatment in vivo, juvenile stage” value is on record as “marked stunting of male schistosomes”; the “Number of worms, Juvenile” value is 30. Besides, in data set [3] (100 mg/kg/day), the “Worm burden reduction (WBR), Adult” value amounted to 34% and the “Worm burden reduction (WBR), Juvenile” value stood at 25%. The molecule also had an IC50 in data set [4] of 23.2 ± 1.43 µM. This molecule had a half-inhibitory concentration (IC50) in data set [5] of 43.8 ± 2.53 µM.

On to `CN(NC(=O)c1ccc(Br)cc1)c1ccc(C(F)(F)F)c(Cl)c1` [Compound 41], for which, in data set [1] (setting [6]), the “Serum GGT” value was 0.87 ± 0.32 U/L, the “Serum TBIL” value was found to be 7.95 ± 2.11 µM, the “Serum BUN” value turned out to be 7.79 ± 2.11 mM and the “Serum ALT” value was 274.67 ± 186.53 U/L. Besides, the “Serum AST” value in data set [1] (setting [6]) is on record as 453.33 ± 217.99 U/L. Further, in data set [1] (setting [7]), the “Serum GGT” value is 1.60 ± 0.17 U/L, the “Serum TBIL” value came to 3.61 ± 1.39 µM, the “Serum BUN” value is recorded as 6.18 ± 4.85 mM and the “Serum ALT” value is reported as 364.00 ± 329.78 U/L. The “Serum AST” value in data set [1] (setting [7]) came out at 557.67 ± 630.32 U/L. Besides, the Nephrotoxicity entry in data set [1] is recorded as “without observable nephrotoxicity”. Further, the mortality at 100 µM in data set [2] (setting [8]) turned out to be 35%. Also, in data set [2] (setting [9]), the mortality at 100 µM was determined as 70%. For the same molecule, in data set [2] (setting [10]), the mortality at 100 µM is 80%. Further, the LC50 in data set [2] (72 h) came out at 61.4 ± 1.8 µM. Besides, the mortality at 100 µM in data set [2] (setting [11]) worked out at 100%. In the data set “Acute oral toxicity”, the LD50 came out at 1400 mg/kg. In the data set on healthy mice, the 50% lethal dose (LD50) was >2,000 mg/kg and the LogLD50 was over 3.30. In addition, in data set [3], the “Morphology of worms after treatment in vivo, adult stage” value was “making the males thicker and shorter”; the “Number of worms, Adult” value was found to be 31; the “Morphology of worms after treatment in vivo, juvenile stage” value was “marked stunting of male schistosomes”; the “Number of worms, Juvenile” value came to 28. Besides, in data set [3] (100 mg/kg/day), the “Worm burden reduction (WBR), Adult” value is recorded as 30% and the “Worm burden reduction (WBR), Juvenile” value is given as 30%. The “Hepatic egg burden, adult-stage treatment” value in data set [3] (mouse livers at 45 dpi, treatment in adult stage) is “comparable egg burdens to untreated controls”. This molecule also had an IC50 in data set [4] of 20.7 ± 1.36 µM. This molecule showed an IC50 in [5] of 39.2 ± 3.53 µM.

Consider `O=C(Nc1ccc(Cl)c(Cl)c1)Nc1ccc(Cl)c(Cl)c1` [MMV665852, reference compound], for which the mortality at 100 µM in data set [2] (setting [8]), in data set [2] (setting [9]), in data set [2] (setting [10]) and in data set [2] (setting [11]) was 100% in each case. For the same molecule, the LC50 in [2] (72 h) was determined as 12.5 ± 2.36 µM. For the same molecule, the “Number of worms, Adult” value in data set [3] is listed as 36. Further, the “Worm burden reduction (WBR), Juvenile” value in data set [3] is 20%. For the same molecule, the “Number of worms, Juvenile” value in data set [3] is 32. Besides, the “In vivo antischistosomal efficacy (worm burden reduction)” value in the data set on Schistosoma mansoni was “minimal antischistosomal efficacy”.
